Key:
[1] = test system: Human promyelocytic leukemia (HL60) cells; test: HL-60 cell differentiation (nitro blue tetrazolium reduction); format: cell-based; conditions: compared with 1,25-(OH)2D3; FIG. 2
Experimental: FIG. 2 is a graph comparing the percent HL-60 cell differentiation as a function of the concentration of (20S/24R) 2-MD2 with that of 1,25(OH)2D3.
The study drugs were dissolved in ethanol and the concentrations determined using UV spectrophotometry. Serial dilutions were prepared so that a range of drug concentrations could be tested without changing the final concentration of ethanol (≦0.2%) present in the cell cultures.
Human promyelocytic leukemia (HL60) cells were grown in RPMI-1640 medium containing 10% fetal bovine serum. The cells were incubated at 37° C. in the presence of 5% CO2.
HL60 cells were plated at 1.2×10^5 cells/ml. Eighteen hours after plating, cells in duplicate were treated with drug. Four days later, the cells were harvested and a nitro blue tetrazolium reduction assay was performed (Collins et al., 1979; J. Exp. Med. 149:969-974). The percentage of differentiated cells was determined by counting a total of 200 cells and recording the number that contained intracellular black-blue formazan deposits. Verification of differentiation to monocytic cells was determined by measuring phagocytic activity (data not shown).

[2] = Intestinal calcium transport (everted gut sac method); format: in vivo, Sprague-Dawley rats; conditions: compared with 1,25-(OH)2D3, rats, four consecutive ip doses, FIG. 5
Excerpt: FIG. 5 is a bar graph comparing the intestinal calcium transport activity of (20S/24R) 2-MD2 with that of 1,25(OH)2D3.
(§1) Male, weanling Sprague-Dawley rats were placed on Diet 11 (Suda et al. J. Nutr. 100:1049, 1970) (0.47% Ca) diet+vitamins AEK for one week followed by Diet 11 (0.02% Ca)+AEK for 3 weeks. The rats were then switched to a diet containing 0.47% Ca for one week followed by two weeks on a diet containing 0.02% Ca. Dose administration began during the last week on 0.02% calcium diet. Four consecutive ip doses were given approximately 24 hours apart. Twenty-four hours after the last dose, blood was collected from the severed neck and the concentration of serum calcium determined as a measure of bone calcium mobilization. The first 10 cm of the intestine was also collected for intestinal calcium transport analysis using the everted gut sac method.

[3] = test system: 24-hydroxylase (24Ohase) gene promoter in ROS 17/2.8 (bone) cells; test: In vitro transcription assay (24-hydroxylase promoter luciferase reporter); format: cell-based; conditions: compared with 1,25-(OH)2D3; ROS 17/2.8 cells, 24Ohase-luciferase; FIG. 3
Experimental: FIG. 3 is a graph comparing the in vitro transcription activity of (20S/24R) 2-MD2 with that of 1,25(OH)2D3.
Transcription activity was measured in ROS 17/2.8 (bone) cells that were stably transfected with a 24-hydroxylase (24Ohase) gene promoter upstream of a luciferase reporter gene (Arbour et al., 1998). Cells were given a range of doses. Sixteen hours after dosing the cells were harvested and luciferase activities were measured using a luminometer. RLU=relative luciferase units.

[4] = Bone calcium mobilization (serum calcium); format: in vivo, Sprague-Dawley rats; conditions: compared with 1,25-(OH)2D3, rats, four consecutive ip doses, FIG. 4
Excerpt: FIG. 4 is a bar graph comparing the bone calcium mobilization activity of (20S/24R) 2-MD2 with that of 1,25(OH)2D3.
as §1

[5] = target: T1, full-length recombinant rat vitamin D receptor (Rattus norvegicus, UniProt P13053); test: Vitamin D receptor competitive binding with [3H]-1,25-(OH)2-D3; conditions: compared with native hormone 1,25(OH)2D3; FIG. 1
T1 construct: Full-length recombinant rat receptor was expressed in E. coli BL21(DE3) Codon Plus RIL cells; histidine tag (C); made in house; host or cells: E. coli BL21(DE3) Codon Plus RIL
T1 sequence (P13053 1-423): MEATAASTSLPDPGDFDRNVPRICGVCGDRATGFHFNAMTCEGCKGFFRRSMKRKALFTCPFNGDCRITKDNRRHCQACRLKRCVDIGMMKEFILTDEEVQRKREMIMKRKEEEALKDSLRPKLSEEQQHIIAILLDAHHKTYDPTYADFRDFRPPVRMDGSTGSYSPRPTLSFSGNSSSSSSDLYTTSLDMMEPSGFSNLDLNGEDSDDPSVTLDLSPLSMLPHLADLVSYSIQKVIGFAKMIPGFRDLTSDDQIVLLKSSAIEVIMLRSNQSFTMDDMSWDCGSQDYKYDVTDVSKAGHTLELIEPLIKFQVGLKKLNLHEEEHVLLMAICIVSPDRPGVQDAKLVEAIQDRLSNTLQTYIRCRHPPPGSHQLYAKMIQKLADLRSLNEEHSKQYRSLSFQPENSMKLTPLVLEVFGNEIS
Excerpt: FIG. 1 is a graph comparing the relative activity of (20S/24R) 2-MD2 and 1,25(OH)2D3 to compete for binding with [^3H]-1,25-(OH)2-D3 to the full-length recombinant rat vitamin D receptor.
Full-length recombinant rat receptor was expressed in E. coli BL21(DE3) Codon Plus RIL cells and purified to homogeneity using two different column chromatography systems. The first system was a nickel affinity resin that utilizes the C-terminal histidine tag on this protein. The protein that was eluted from this resin was further purified using ion exchange chromatography (S-Sepharose Fast Flow). Aliquots of the purified protein were quick frozen in liquid nitrogen and stored at −80° C. until use. For use in binding assays, the protein was diluted in TEDK50 (50 mM Tris, 1.5 mM EDTA, pH 7.4, 5 mM DTT, 150 mM KCl) with 0.1% Chaps detergent. […]
Unlabeled ligands were dissolved in ethanol and the concentrations determined using UV spectrophotometry (1,25(OH)2D3: molar extinction coefficient=18,200 and λmax=265 nm; Analogs: molar extinction coefficient=42,000 and λmax=252 nm). […]
Radiolabeled and unlabeled ligands were added to 100 mcl of the diluted protein at a final ethanol concentration of ≦10%, mixed and incubated overnight on ice to reach binding equilibrium. […] Total binding was determined from the tubes containing only radiolabeled ligand.

binding to the vitamin D receptor [5]: almost equal to the native hormone
SMILES: C=C1[C@H](O)CC(=C/C=C2\CCC[C@]3(C)C([C@@H](C)/C=C/[C@@H](C)C(C)(C)O)CC[C@@H]23)C[C@H]1O (stereo in doubt) [2-methylene-19-nor-(20S-24epi)-1α,25-dihydroxyvitamin D2]
inducing differentiation of HL-60 cells [1]: more activity than 1,25-(OH)2D3
intestinal calcium transport activity [2]: approximately equal to 1,25-(OH)2D3
causing transcription [3]: more effective than 1,25-(OH)2D3
bone calcium mobilizing activity [4]: more bone calcium mobilizing activity than 1,25-(OH)2D3

Reference: patent publication US20060183721A1, “2-Methylene-19-nor-(20S-24epi)-1alpha,25-dihydroxyvitamin D2” (Wisconsin Alumni Research Foundation, priority 2005, published 2006)
